Results published in US6852673B2, “Herbicidal pyridine compounds” (BASF Aktiengesellschaft, priority 1998, dated 2005).

What was measured:
Type in all cases: in vivo
Hordeum vulgare (HORVW) [1] = test: Pre-emergence herbicidal evaluation, winter barley
Method in brief: (§1)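 Rating done 2–4 weeks post-treatment in the greenhouse. Compound, in aqueous acetone, was sprayed onto soil surface right after sowing, at rates equivalent to about 0.0125–0.4 kg per hectare, before crop or weed emergence.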

Oryza sativum (ORYSA) [2] = test: Pre-emergence herbicidal evaluation, rice
Method in brief: as §1

[3] = test system: Triticum aestivum (TRZAW); test: Pre-emergence herbicidal evaluation, winter wheat
Method in brief: as §1

[4] = test system: Abutilon theophrasti (ABUTH); test: Pre-emergence herbicidal evaluation, velvetleaf
Method in brief: as §1

[5] = test system: Ambrosia artemiisifolia (AMBEL); test: Pre-emergence herbicidal evaluation, ragweed
Method in brief: as §1

Galium aparine (GALAP) [6] = test: Pre-emergence herbicidal evaluation, cleaver
Method in brief: as §1

[7] = test system: Ipomoea hederacea (IPOHE); test: Pre-emergence herbicidal evaluation, morning glory
Method in brief: as §1

Lamium purpureum (LAMPU) = test: Pre-emergence herbicidal evaluation, purple deadnettle
Method in brief: as §1

[8] = test system: Matricaria inodora (MATIN); test: Pre-emergence herbicidal evaluation, mayweed
Method in brief: as §1

Stellaria media (STEME) = test: Pre-emergence herbicidal evaluation, chickweed
Method in brief: as §1

[9] = test system: Alopecurus myosuroides (ALOMY); test: Pre-emergence herbicidal evaluation, black grass
Method in brief: as §1

[10] = test system: Echinochloa grus galli (ECHCG); test: Pre-emergence herbicidal evaluation, barnyard grass
Method in brief: as §1

Setaria viridis (SETVI) [11] = test: Pre-emergence herbicidal evaluation, green foxtail
Method in brief: as §1

Glycine max (GLXMA) = test: Post-emergence herbicidal evaluation, soyabeans; settings: rated 2 to 4 weeks after treatment
Method in brief: (§2)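 Plants rated 0–9 (0 = growth as untreated control, 9 = death) 2 to 4 weeks after greenhouse post-emergence treatment. Formulations were water-diluted acetone solutions sprayed at doses equivalent to about 0.03 to 0.4 kg test compound per hectare per pot.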

Hordeum vulgare (HORVW) [12] = test: Post-emergence herbicidal evaluation, winter barley; settings: rated 2 to 4 weeks after treatment
Method in brief: as §2

Oryza sativum (ORYSA) [13] = test: Post-emergence herbicidal evaluation, rice; settings: rated 2 to 4 weeks after treatment
Method in brief: as §2

[14] = test system: Triticum aestivum (TRZAW); test: Post-emergence herbicidal evaluation, winter wheat; settings: rated 2 to 4 weeks after treatment
Method in brief: as §2

Zea mays (ZEAMX) = test: Post-emergence herbicidal evaluation, maize; settings: rated 2 to 4 weeks after treatment
Method in brief: as §2

[15] = test system: Abutilon theophrasti (ABUTH); test: Post-emergence herbicidal evaluation, velvetleaf; settings: rated 2 to 4 weeks after treatment
Method in brief: as §2

[16] = test system: Ambrosia artemiisifolia (AMBEL); test: Post-emergence herbicidal evaluation, ragweed; settings: rated 2 to 4 weeks after treatment
Method in brief: as §2

Galium aparine (GALAP) [17] = test: Post-emergence herbicidal evaluation, cleaver; settings: rated 2 to 4 weeks after treatment
Method in brief: as §2

[18] = test system: Ipomoea hederacea (IPOHE); test: Post-emergence herbicidal evaluation, morning glory; settings: rated 2 to 4 weeks after treatment
Method in brief: as §2

[19] = test system: Matricaria inodora (MATIN); test: Post-emergence herbicidal evaluation, mayweed; settings: rated 2 to 4 weeks after treatment
Method in brief: as §2

[20] = test system: Alopecurus myosuroides (ALOMY); test: Post-emergence herbicidal evaluation, black grass; settings: rated 2 to 4 weeks after treatment
Method in brief: as §2

[21] = test system: Echinochloa grus galli (ECHCG); test: Post-emergence herbicidal evaluation, barnyard grass; settings: rated 2 to 4 weeks after treatment
Method in brief: as §2

Setaria viridis (SETVI) [22] = test: Post-emergence herbicidal evaluation, green foxtail; settings: for SETVI rating: rated 2 to 4 weeks after treatment
Method in brief: as §2

Cc1cc(OCC(F)(F)C(F)(F)C(F)(F)C(F)F)nc(Oc2cc(C(F)(F)F)nn2C)c1 [Example 8]
0 (0 - No effect): HORVW rating (Hordeum vulgare (HORVW) [1]; dose 0.013 kg/ha) | ORYSA rating (Oryza sativum (ORYSA) [2]; dose 0.013 kg/ha) | ORYSA rating (Oryza sativum (ORYSA) [2]; dose 0.025 kg/ha) | TRZAW rating ([3]; dose 0.013 kg/ha) | TRZAW rating ([3]; dose 0.025 kg/ha) | ABUTH rating ([4]; dose 0.013 kg/ha)
7 (7 - Good herbicidal effect): ABUTH rating ([4]; dose 0.1 kg/ha) | AMBEL rating ([5]; dose 0.025 kg/ha) | ALOMY rating ([9]; dose 0.1 kg/ha) | GLXMA rating (Glycine max (GLXMA); dose 0.1 kg/ha) | ABUTH rating ([15]; dose 0.4 kg/ha) | GALAP rating (Galium aparine (GALAP) [17]; dose 0.1 kg/ha) | IPOHE rating ([18]; dose 0.03 kg/ha) | ALOMY rating ([20]; dose 0.1 kg/ha)
9 (9 - Complete kill): ABUTH rating ([4]; dose 0.4 kg/ha) | IPOHE rating ([7]; dose 0.1 kg/ha) | IPOHE rating ([7]; dose 0.4 kg/ha) | LAMPU rating (Lamium purpureum (LAMPU); dose 0.1 kg/ha) | LAMPU rating (Lamium purpureum (LAMPU); dose 0.4 kg/ha) | MATIN rating ([8]; dose 0.1 kg/ha) | MATIN rating ([8]; dose 0.4 kg/ha) | STEME rating (Stellaria media (STEME); dose 0.1 kg/ha) | STEME rating (Stellaria media (STEME); dose 0.4 kg/ha) | SETVI rating (Setaria viridis (SETVI) [11]; dose 0.1 kg/ha) | SETVI rating (Setaria viridis (SETVI) [11]; dose 0.4 kg/ha) | IPOHE rating ([18]; dose 0.1 kg/ha) | IPOHE rating ([18]; dose 0.4 kg/ha) | MATIN rating ([19]; dose 0.03 kg/ha) | MATIN rating ([19]; dose 0.1 kg/ha) | MATIN rating ([19]; dose 0.4 kg/ha)
6 (6 - Herbicidal effect): GALAP rating (Galium aparine (GALAP) [6]; dose 0.1 kg/ha) | ECHCG rating ([10]; dose 0.1 kg/ha) | SETVI rating (Setaria viridis (SETVI) [22]; dose 0.1 kg/ha)
4 (4 - Injury): HORVW rating (Hordeum vulgare (HORVW) [1]; dose 0.4 kg/ha) | STEME rating (Stellaria media (STEME); dose 0.025 kg/ha)
3 (3 - Moderate effect): HORVW rating (Hordeum vulgare (HORVW) [1]; dose 0.1 kg/ha) | TRZAW rating ([3]; dose 0.4 kg/ha) | SETVI rating (Setaria viridis (SETVI) [11]; dose 0.025 kg/ha) | HORVW rating (Hordeum vulgare (HORVW) [12]; dose 0.1 kg/ha) | HORVW rating (Hordeum vulgare (HORVW) [12]; dose 0.4 kg/ha) | TRZAW rating ([14]; dose 0.4 kg/ha) | ZEAMX rating (Zea mays (ZEAMX); dose 0.4 kg/ha) | SETVI rating (Setaria viridis (SETVI) [22]; dose 0.03 kg/ha)
2 (2 - Slight effect): IPOHE rating ([7]; dose 0.013 kg/ha) | IPOHE rating ([7]; dose 0.025 kg/ha) | HORVW rating (Hordeum vulgare (HORVW) [12]; dose 0.03 kg/ha) | ORYSA rating (Oryza sativum (ORYSA) [13]; dose 0.1 kg/ha) | ORYSA rating (Oryza sativum (ORYSA) [13]; dose 0.4 kg/ha) | TRZAW rating ([14]; dose 0.03 kg/ha) | TRZAW rating ([14]; dose 0.1 kg/ha) | ALOMY rating ([20]; dose 0.03 kg/ha) | ECHCG rating ([21]; dose 0.03 kg/ha)
1 (1 - Trace effect): HORVW rating (Hordeum vulgare (HORVW) [1]; dose 0.025 kg/ha) | ORYSA rating (Oryza sativum (ORYSA) [2]; dose 0.1 kg/ha) | ORYSA rating (Oryza sativum (ORYSA) [2]; dose 0.4 kg/ha) | TRZAW rating ([3]; dose 0.1 kg/ha) | ABUTH rating ([4]; dose 0.025 kg/ha) | GALAP rating (Galium aparine (GALAP) [6]; dose 0.013 kg/ha) | GALAP rating (Galium aparine (GALAP) [6]; dose 0.025 kg/ha) | STEME rating (Stellaria media (STEME); dose 0.013 kg/ha) | ALOMY rating ([9]; dose 0.013 kg/ha) | ALOMY rating ([9]; dose 0.025 kg/ha) | ECHCG rating ([10]; dose 0.013 kg/ha) | ECHCG rating ([10]; dose 0.025 kg/ha) | SETVI rating (Setaria viridis (SETVI) [11]; dose 0.013 kg/ha) | ORYSA rating (Oryza sativum (ORYSA) [13]; dose 0.03 kg/ha) | ZEAMX rating (Zea mays (ZEAMX); dose 0.03 kg/ha) | ZEAMX rating (Zea mays (ZEAMX); dose 0.1 kg/ha) | ABUTH rating ([15]; dose 0.03 kg/ha)
effective: grass control such as Setaria virides (Setaria viridis (SETVI) [22]; in barley at crop selective doses)
8 (8 - Approaching complete kill): AMBEL rating ([5]; dose 0.1 kg/ha) | AMBEL rating ([5]; dose 0.4 kg/ha) | GALAP rating (Galium aparine (GALAP) [6]; dose 0.4 kg/ha) | LAMPU rating (Lamium purpureum (LAMPU); dose 0.013 kg/ha) | LAMPU rating (Lamium purpureum (LAMPU); dose 0.025 kg/ha) | MATIN rating ([8]; dose 0.013 kg/ha) | MATIN rating ([8]; dose 0.025 kg/ha) | ALOMY rating ([9]; dose 0.4 kg/ha) | ECHCG rating ([10]; dose 0.4 kg/ha) | GLXMA rating (Glycine max (GLXMA); dose 0.4 kg/ha) | AMBEL rating ([16]; dose 0.1 kg/ha) | AMBEL rating ([16]; dose 0.4 kg/ha) | GALAP rating (Galium aparine (GALAP) [17]; dose 0.4 kg/ha) | ALOMY rating ([20]; dose 0.4 kg/ha) | ECHCG rating ([21]; dose 0.4 kg/ha) | SETVI rating (Setaria viridis (SETVI) [22]; dose 0.4 kg/ha)
5 (5 - Definite injury): AMBEL rating ([5]; dose 0.013 kg/ha) | GLXMA rating (Glycine max (GLXMA); dose 0.03 kg/ha) | ABUTH rating ([15]; dose 0.1 kg/ha) | AMBEL rating ([16]; dose 0.03 kg/ha) | GALAP rating (Galium aparine (GALAP) [17]; dose 0.03 kg/ha) | ECHCG rating ([21]; dose 0.1 kg/ha)
